Assays:
[1] = DPPH scavenging method (antioxidation); type: biochemical; details: 0.25%, positive control, dilution not given
Excerpt: To add antioxidation properties to the self-foaming cleansing composition, tocopherol (Vitamin E) can be added. Antioxidation can be measured using a DPPH scavenging method where DPPH (1,1-Diphenyl-2-picrylhydrazyl) is a stable free radical. On accepting hydrogen from a corresponding donor, its solutions lose a characteristic deep purple color and antiradical activity of tested formulations can be expressed as a percentage decrease of DPPH concentration. […] Accordingly, in a further aspect, the invention relates to the use of tocopherol in a composition according to the invention to provide anti-oxidant activity to the cleansing composition, preferably dose-dependent anti-oxidant activity. The invention relates further to the use of tocopherol to reduce free radicals in a cleansing composition according to the invention, preferably dose-dependent anti-oxidant activity. In a further embodiment, it may be preferred that the cleansing composition of the invention comprises tocopherol and moringa seed oil.
The antioxidant activity of the formulations in Samples 4 and 5 were tested using the DPPH scavenging method (1,1-Diphenyl-2-picrylhydrazyl). DPPH is a stable free radical. […] The antiradical activity of Samples 4 and 5 was expressed as a percentage decrease of DPPH concentration.

IL-1a = assay: Living skin equivalent assay, IL-1a; type: cell-based; details: living skin equivalent after application of test solution
Protocol: (§1) In the following samples, compositions were made with varying levels of moringa seed oil and tested in a living skin equivalent assay. The base composition was tested with levels of 0.1% by weight, 0.2% by weight, and 0.3% by weight of moringa seed oil, based on the total weight of the self-foaming cleansing composition. The living skin equivalent assay study monitored gene expression of several markers after application of the test solutions to the living skin equivalent assay.
(§2) Comparative Example 1 was a non-treated control meaning no application on the skin model. Comparative Example 2 was another control where phosphate-buffered saline (PBS) was applied topically to the skin model.

AQP3 = assay: Living skin equivalent assay, AQP3 gene expression; type: cell-based
Protocol: as §1, §2

CASP14 = assay: Living skin equivalent assay, CASP14 gene expression; type: cell-based
Protocol: as §1, §2

Compound	% Reduction over DPPH reagent control [1] [%]	IL-1a (IL-1a) [pg/mL]	AQP3 (Fold change) (AQP3)	CASP14 (Fold change) (CASP14)
O=C1O[C@H]([C@@H](O)CO)C(O)=C1O [Vitamin C]	95.04	–	–	–
squalene monoperoxide [SQOOH]	–	483.84 ± 11.42	0.27 ± 0.04	0.54 ± 0.31

From patent US20260076893A1, “SELF-FOAMING CLEANSING COMPOSITION” (Conopco, Inc., d/b/a UNILEVER, priority 2022, published 2026)
